Source: patent publication US11958869B2, “Ruthenium arene Schiff-base complexes and uses thereof” (CITY UNIVERSITY OF HONG KONG, priority 2021, dated 2024)
Like-named read-outs stand apart in the source and are kept apart here.

Columns and labels:
MDA-MB-231 mammospheres [1] = assay: Viability of MDA-MB-231 mammospheres, Alamar Blue assay (Table 1); assay type: cell-based
MCF-7 = assay: cells; assay type: cell-based; settings: for IC50: read-out: IC50 (μM) MCF-7 72 h
Method: (§1) Cells were seeded in 96-well plates and maintained for 14-16 hours, then were treated with dimethylsulfoxide (DMSO) or test compound at various concentrations (i.e., 0.312, 1.25, 5, 20 μM) for 72 hrs. The cells were then washed with phosphate buffer saline (PBS) twice, added a medium containing 3-(4,5-dimethylthiazol-2-yl)-2,5-diphenyltetrazolium bromide (MTT) at a final concentration of 0.5 mg/mL, and incubated for 4 hr at 37° C. in a humidified incubator containing 5% CO2 in air. Cells having functional succinate dehydrogenase of mitochondria would convert MTT to formazan. Then, the medium was replaced with 100 μL of DMSO for 30 min at room temperature, and the 96-well plate was read by an ELISA reader at 550 nm to get the absorbance density values. The IC50 values of death cell lines were calculated accordingly.
(§2) The Ru^TEN complexes of Example 1 were evaluated for their anti-proliferative properties in two breast cancer cell lines, namely, MCF-7 and MDA-MB-231 cells via MTT assay. […] MCF-7 is a chemotherapy-responsive breast cancer cell line of luminal subtype with high expression of estrogen receptor (ER), whereas MDA-MB-231 is a triple negative breast cancer (TNBC) or basal-like breast cancer cell ine. TNBC is defined as highly invasive cancer that lacks expression of ER, progesterone receptor (PR) and Her-2; it has one of the worst outcomes among all subtypes of breast cancers. The aggressive nature of TNBC may be related to the presence of breast cancer stem cells within the tumor; therefore, MDA-MB-231 cells are often used as a model of mammary cancer stem cells.
(§3) The cytotoxicity of Ru^TEN complexes of Example 1 was compared to that of cisplatin or oxaliplatin, which were known to induce their anticancer effects by the mode of action different from ER stress. Three CSC-selective organic compounds, salinomycin, etoposide and abamectin, were also used for comparison. Briefly, MCF-7 and MDA-MB-231 cells were respectively treated with increasing concentrations of compounds of interest for 24 or 72 hrs and then the cell viability was measured.

MDA-MB-231 = assay: Anti-proliferative activity (MTT assay), MDA-MB-231; assay type: cell-based
Method: as §1, §2, §3

MDA-MB-231 mammospheres [2] = assay: Cytotoxicity in MDA-MB-231 mammospheres (Table 2); assay type: cell-based; settings: read-out: IC50 (μM) MDA-MB-231 mammospheres 72 h
MCF-7 mammospheres = assay: Mammosphere formation assay, MCF-7; assay type: cell-based; settings: for Number of MCF-7 mammospheres / Size (μm) of MCF-7 mammospheres: primary mammospheres grown 96 hr, incubated with compound 72 hrs, >50 μm analyzed
Method: (§4) Since the breast cancer stem cells formed a mass of colonies in the form of floating spheres without attaching to a surface of a plate, the size and number of the masses were observed by a mammosphere formation assay to determine a cancer-stem-cell-specific effect.
(§5) Single-cell suspension was cultured at a density of 1,000 to 15,000 cells/well using a MammoCult™ Human Medium kit (Stemcell Technologies Inc Vancouver, CA), and the spherical cells were counted and observed under a microscope.
(§6) The mammosphere assay is based on the concept that when cells proliferate in three-dimensional spheroid structures, only cancer cells with stem-like characteristics are able to evade anoikis.

MDA-MB-231 mammospheres [3] = assay: Mammosphere formation assay, MDA-MB-231 primary; assay type: cell-based; settings: for Number of MDA-MB-231 mammospheres / Size (μm) of MDA-MB-231 mammospheres: primary mammospheres grown 96 hr, incubated with compound 72 hrs, >50 μm analyzed; for decrease in number of MDA-MB-231 mammospheres / decrease in size of MDA-MB-231 mammospheres: versus control
Method: as §4, §5, §6

[4] = tested on: MDA-MB-231 secondary mammospheres; assay: Secondary mammosphere formation (self-renewal), MDA-MB-231; assay type: cell-based; settings: for Number of MDA-MB-231 secondary mammospheres / Size (μm) of MDA-MB-231 secondary mammospheres: from drug-treated primary mammospheres, grown in drug-free conditions for 7 days; for propensity to form secondary mammospheres: single cells from drug-treated primary mammospheres, 7 days drug-free, FIG. 2
Method: To this purpose, drug-treated primary MDA-MB-231 mammospheres were dissociated into single cell suspensions and incubated for 7 days in ultralow attachment drug-free conditions.

[5] = tested on: ALDHbright subpopulation of MDA-MB-231 cells; assay: ALDEFLUOR assay (ALDH activity); assay type: cell-based; settings: versus control, FIG. 3
Method: The cells were stained with […] bodipy-aminoacetaldehyde (BAAA), and then cultured at 37° C. for 45 minutes. An ALDH1 inhibitor, diethyl aminobenzaldehyde (DEAB), was used as the negative control. The stained cells were assayed using BD FACS Aria III. In this case, the positive fluorescent ALDH1-expressed cells (ALDH+) were detected in a green fluorescent channel (520 to 540 nm).
While CD44+/CD24−/low phenotype has often been associated with breast CSC/progenitor cell features, yet there is no correlation between the presence of CD44+/CD24−/low cells and clinical outcome and formation of distant metastases. It is the presence of aldehyde dehydrogenase (ALDH) bright cells which separates highly tumorigenic CD44+/CD24−/low/ALDHbright population from non-tumorigenic cells. Unlike CD44+/CD24−/low, ALDH is a predictor of metastasis and is associated with a poor clinical outcome. The main role of ALDH enzymes is the detoxification of aldehydes generated in various metabolic processes into carboxylic acids. However, several ALDH isoforms are involved in retinoic acid signaling and this particular function was linked to the “stemness” of CSCs. The functional activity of ALDHs can be accurately determined by ascertaining the cellular conversion of […] (BAAA) into a fluorescent molecule BODIPY-aminoacetate (BAA). ATP-binding cassette (ABC)-transporter inhibitors in the assay buffer prevent the efflux of BAA from the cells, resulting in the accumulation of BAA in cytoplasm.

MDA-MB-231 mammospheres [6] = assay: Invasion / dispersion of spheroids into 3D collagen; assay type: cell-based; settings: cells incubated with compound 72 hr, FIG. 4
From the text: CSCs are associated with highly invasive phenotype and it is believed that this subset of cancer cells gives rise to metastases. In order to monitor the dissemination of MCF-7 and MDA-MB-231 breast cancer spheroids, the spheroids were embedded into three-dimensional (3D) collagen scaffold using Aim Biotech 3D cell culture chips. Collagen with spheroids was introduced into the central region of the microfluidic system where it polymerized via thermal cross-linking. Cell culture media was introduced into media channels forcing spheroids to move through collagen towards the media.
Thus, whether Ru^TEN complexes and salinomycin affected the invasive properties of MDA-MB-231 spheroids was then investigated. To this purpose, MDA-MB-231 monolayer cells were incubated with compounds of interest (e.g., Ru^TEN complexes of Examplel or salinomycin) for 72 hr, then the delamination was allowed to proceed for over 28 hr. Results are depicted in FIG. 4.

[7] = tested on: human hepatocellular carcinoma LM3 xenografts; assay: Hepatocellular carcinoma LM3 xenograft model; assay type: in vivo, athymic NCr nude mice; settings: all doses tested, FIG. 8
Method: (§7) Hepatocellular carcinoma LM3 cells (5×10^4 cells/20 μL) or breast cancer MDM-BA-231 cells (5×10^4 cells/20 μL) were implanted subcutaneously in the flanks of athymic NCr nude mice. A total of 40 male NCr nude mice (8 weeks or older weighing 20-24 g or more) were used for the tumor xenografts. The tested compounds (e.g., Ru^TEN 1, Ru^TEN 3, or salinomycin) were intraperitoneally administered at the dose of […] twice per week. Tumor volume was determined by image analysis. The mice in the control group received corresponding injection of 0.1% DMSO. For tumor-bearing NCr nude mice during the 4-weeks (or 28 days) experiment, the % body weight changes refer to: (the total weight on reading day/the total weight on day treatment started)×100. All mice were sacrificed at the end of the experiment (i.e., by the end of 28 days), and tissues including lung, liver, tumor, heart, brain, kidneys, spleen and colon were harvested, and checked for any sign of cancer metastasis.

[8] = tested on: human MD-MBA-231 breast cancer xenografts; assay: Breast cancer MDA-MB-231 xenograft model; assay type: in vivo, athymic NCr nude mice; settings: doses tested, FIG. 11
Method: as §7
Results are depicted in FIGS. 9 to 11.

[9] = 24 h, MTT, read-out: IC50 (μM) MDA-MB-231 24 h
[10] = 72 h, MTT, read-out: IC50 (μM) MDA-MB-231 72 h

SMILES	IC50 (MCF-7; 72 h, MTT) [µM]	IC50 (MDA-MB-231; [9]) [µM]	IC50 (MDA-MB-231; [10]) [µM]	IC50 (MDA-MB-231 mammospheres [2]; 72 h) [µM]	Number of MCF-7 mammospheres (MCF-7 mammospheres)	Size (μm) of MCF-7 mammospheres (MCF-7 mammospheres) [μm]	Number of MDA-MB-231 mammospheres (MDA-MB-231 mammospheres [3])	Size (μm) of MDA-MB-231 mammospheres (MDA-MB-231 mammospheres [3]) [μm]	Number of MDA-MB-231 secondary mammospheres [4]	Size (μm) of MDA-MB-231 secondary mammospheres [4] [μm]	reduction of ALDHbright sub-population [5]	decrease in number of MDA-MB-231 mammospheres (MDA-MB-231 mammospheres [3]) [%]	decrease in size of MDA-MB-231 mammospheres (MDA-MB-231 mammospheres [3]) [%]	propensity to form secondary mammospheres [4]	dispersion of cells into collagen after 4 hr (MDA-MB-231 mammospheres [6])	dispersion of cells into collagen after 28 hr / entire incubation period (MDA-MB-231 mammospheres [6])	also measured
N.N.[Cl][Pt][Cl] [Cisplatin, cisplatin]	22 ± 7	268 ± 78	27 ± 8	> 40	273 ± 108	106 ± 14	136 ± 44	95 ± 25	67 ± 20	103 ± 30	did not affect ALDHbright cells	–	–	–	–	–	viability of MDA-MB-231 mammospheres (MDA-MB-231 mammospheres [1]): did not affect the viability; antiproliferative activity, MCF-7 (MCF-7; MTT): only moderately active; antiproliferative activity, MDA-MB-231 (MDA-MB-231; MTT): only moderately active; inhibition of mammosphere growth, MCF-7 (MCF-7 mammospheres): did not show any potency in inhibiting mammosphere growth; inhibition of mammosphere growth, MDA-MB-231 (MDA-MB-231 mammospheres [3]): did not show any potency in inhibiting mammosphere growth
CC(C)c1cc(C(C)C)cc(C(C)C)c1.COc1ccc([N+]2=Cc3ccc4ccccc4[n+]3[Ru-]2[Cl])cc1.[Cl-] [Ru^TEN1, [(η6-1,3,5-triisopropybenzene)RuCl(4-methoxy-N-(2-quinolinyl-methylene)-aniline)]Cl]	0.68 ± 0.23	1.2 ± 0.1	0.28 ± 0.1	1.4 ± 0.1	238 ± 86	130 ± 15	103 ± 41	93 ± 29	102 ± 28	69 ± 3	–	20	18	drastically reduced propensity to form secondary mammospheres	did not exhibit significant dispersion	only slight dispersion	IC50 (MDA-MB-231 mammospheres [1]; read-out: IC50 (μM), growth of MDA-MB-231 mammospheres): 2.2 µM; body weight of LM3 tumor-bearing mice [7]: neither Ru^TEN1 nor Ru^TEN3 had caused lost in body weight
CC[C@@H](C(=O)[C@@H](C)[C@@H](O)[C@H](C)[C@@H]1O[C@@H]([C@@H](CC)C(=O)O)CC[C@@H]1C)[C@H]1O[C@]2(C=C[C@@H](O)[C@]3(CC[C@@](C)([C@H]4CC[C@](O)(CC)[C@H](C)O4)O3)O2)[C@H](C)C[C@@H]1C [Saliomycin, salinomycin]	–	–	–	–	176 ± 73	117 ± 21	87 ± 28	84 ± 25	224 ± 74	82 ± 8	89%	30	30	only slight changes in size and number of mammospheres	did not exhibit significant dispersion	only slight dispersion	IC50 (MCF-7; Homo sapiens, MCF7, 72 h): 0.51 ± 0.03 µM; IC50 (MDA-MB-231; Homo sapiens, MDA-MB-231, 24 h, read-out: IC50 (μM) MDA-MB-231 24 h): 31 ± 4 µM; IC50 (MDA-MB-231; Homo sapiens, MDA-MB-231, 72 h, read-out: IC50 (μM) MDA-MB-231 72 h): 0.56 ± 0.09 µM; IC50 (MDA-MB-231 mammospheres [2]; Homo sapiens, MDA-MB-231, 72 h): 8.3 ± 2.4 µM; decrease in number of MCF-7 mammospheres (MCF-7 mammospheres; versus control): 33%; decrease in size of MCF-7 mammospheres (MCF-7 mammospheres; versus control): 9%; body weight / toxicity in MDA-MB-231 tumor-bearing mice [8]: low toxicity
